A short description of data set [1]: Physicochemical properties: stability.
Data set [2] concerns the target N-acetylglucosamine-1-phosphate uridyltransferase (GlmU) (Escherichia coli, UniProt P0ACC7). Put plainly: GlmU inhibition, biochemical test (384-plate format, DTNB, absorption at 405 nm). Also on record: species or system bacterial. Particulars: 60 minutes of incubation at 30° C.; read-out: inhibition constant, IC50, inhibitory effect on the enzyme GlmU. The method, then: The inhibition of the GlmU can be determined in a biochemical test using the following method:
The assay was carried out in a 384-plate format. The reaction volume was 40 μl per test. The reaction mixture contained 10 μl of test substance and 15 μl of substrate solution consisting of acetylCoA and D-glucosamine-1-phosphate. The enzyme reaction was started by adding 15 μl of GlmU enzyme solution. After 60 minutes of incubation at 30° C., the reaction was stopped by adding 10 μl of developer reagent (DTNB dissolved in guanidine). The plates were then centrifuged (1 min, 1000 rpm) and stored for a further 45 minutes at room temperature before the absorption was read at 405 nm in a photometer. In order to be able to calculate the inhibitory activity of the test compounds, positive controls (signal with GlmU) and negative controls (signal without GlmU) were included on each plate. In order to exclude falsely positive samples, which could be caused by nonspecific substance effects (e.g. color), blank plates, which contained the substances but no GlmU, were included in parallel with the test plates. After correction for the blanks, the inhibitory activities of the substances were calculated in accordance with the following formula: Inhibition(%)=100×[1−(OD405 nm substance/OD405 nm positive control)]

Data set [3] is described as follows: Physicochemical properties: solubility. As to conditions: organic solvents.

Sequence of N-acetylglucosamine-1-phosphate uridyltransferase (GlmU) (P0ACC7 whole entry): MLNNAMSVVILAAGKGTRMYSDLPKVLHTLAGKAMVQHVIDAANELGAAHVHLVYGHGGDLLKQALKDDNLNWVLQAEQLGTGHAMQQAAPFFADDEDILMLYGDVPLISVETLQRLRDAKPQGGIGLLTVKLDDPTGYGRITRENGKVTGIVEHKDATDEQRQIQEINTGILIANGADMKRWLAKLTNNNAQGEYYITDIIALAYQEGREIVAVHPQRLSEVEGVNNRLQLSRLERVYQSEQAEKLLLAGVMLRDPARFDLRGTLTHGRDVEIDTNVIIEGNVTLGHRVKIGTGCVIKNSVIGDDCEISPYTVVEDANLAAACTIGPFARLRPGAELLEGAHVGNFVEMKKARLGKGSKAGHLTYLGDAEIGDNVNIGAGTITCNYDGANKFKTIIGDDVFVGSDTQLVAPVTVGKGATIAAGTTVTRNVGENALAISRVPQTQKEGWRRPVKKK

Broadly, the IC50 is the point on the concentration scale where inhibition reaches its midpoint. For `Cc1c(O)c(O)c(O)c(C=O)c1-c1cc2c(C=O)c(C)c(O)c(O)c2o1` [(II)], the stability result was “Stable in neutral and mildly acid medium” in data set [1] (neutral and mildly acid medium); “unstable in strongly acidic and alkaline solutions and under the influence of oxygen” in data set [1] (strongly acidic and alkaline solutions, under the influence of oxygen). Also, in data set [2], the IC50 came out at 1000 nM. Also, the solubility result in data set [3] was “soluble in medium-polar and polar organic solvents”.

For the origin of these results see US7148254B2, “2-Phenylbenzofuran derivatives, a process for preparing them, and their use” (Sanofi-Aventis Deutschland GmbH, priority 2003, dated 2006).
